Experiments:
[1] = Selectivity index, ratio of CC50 for human MT4 cells to EC50 for wild type HIV-1 IIIB infected in human MT4 cellS
[2] = test system: Human immunodeficiency virus 1; experiment: Antiviral activity against wildtype HIV-1 IIIB infected in human MT4 cells assessed as protection against virus-induced cytopathic effect incubated for 5 days by MTT assay; assay type: functional, organism-based; details: Human immunodeficiency virus 1, IIIB, MT4, 120 h
[3] = Cytotoxicity against human MT4 cells assessed as reduction in cell viability measured after 5 days by MTT assay; details: MT4 cells
[4] = test system: Human immunodeficiency virus 1; experiment: Antiviral activity against HIV-1 harboring RT E138K mutant infected in human MT4 cells assessed as protection against virus-induced cytopathic effect incubated for 5 days by MTT assay; assay type: functional, organism-based; details: Human immunodeficiency virus 1, MT4, 120 h
[5] = test system: Human immunodeficiency virus 1; experiment: Antiviral activity against HIV-1 harboring RT Y188L mutant infected in human MT4 cells assessed as protection against virus-induced cytopathic effect incubated for 5 days by MTT assay; assay type: functional, organism-based; details: Human immunodeficiency virus 1, MT4, 120 h
[6] = test system: Human immunodeficiency virus 1; experiment: Antiviral activity against HIV-1 harboring RT F227L/V106A double mutant infected in human MT4 cells assessed as protection against virus-induced cytopathic effect incubated for 5 days by MTT assay; assay type: functional, organism-based; details: Human immunodeficiency virus 1, MT4, 120 h
[7] = test system: Human immunodeficiency virus 1; experiment: Antiviral activity against HIV-1 harboring RT Y181C mutant infected in human MT4 cells assessed as protection against virus-induced cytopathic effect incubated for 5 days by MTT assay; assay type: functional, organism-based; details: Human immunodeficiency virus 1, MT4, 120 h
[8] = test system: Human immunodeficiency virus 1; experiment: Antiviral activity against HIV-1 harboring RT K103N/Y181C double mutant infected in human MT4 cells assessed as protection against virus-induced cytopathic effect incubated for 5 days by MTT assay; assay type: functional, organism-based; details: Human immunodeficiency virus 1, MT4, 120 h
[9] = test system: Human immunodeficiency virus 1; experiment: Antiviral activity against HIV-1 harboring RT L100I mutant infected in human MT4 cells assessed as protection against virus-induced cytopathic effect incubated for 5 days by MTT assay; assay type: functional, organism-based; details: Human immunodeficiency virus 1, MT4, 120 h
[10] = molecular target: Human immunodeficiency virus type 1 reverse transcriptase (Human immunodeficiency virus 1, UniProt Q72547); experiment: Inhibition of recombinant wild type HIV-1 Reverse transcriptase incubated for 40 mins by Pico-green reagent based fluorescence analysis
[11] = test system: Human immunodeficiency virus 1; experiment: Antiviral activity against HIV-1 harboring RT K103N mutant infected in human MT4 cells assessed as protection against virus-induced cytopathic effect incubated for 5 days by MTT assay; assay type: functional, organism-based; details: Human immunodeficiency virus 1, MT4, 120 h

SMILES	selectivity ratio ([1]; MT4 cells)	EC50 [2] [µM]	CC50 at 120 h [3] [µM]	EC50 [4] [µM]	EC50 [5] [µM]	EC50 [6] [µM]	EC50 [7] [µM]	EC50 [8] [µM]	EC50 [9] [µM]	IC50 [10] [µM]	EC50 [11] [µM]	selectivity ratio ([1]; mt4)
N#Cc1ccc(Nc2ncc(-c3cncc(F)c3)c(Nc3c(F)cc(-c4ccncc4)cc3F)n2)cc1	9400	0.017	156									
Cc1cc(-c2ccncc2)cc(C)c1Nc1nc(Nc2ccc(C#N)cc2)ncc1-c1ccc(N(C)C)nc1	> 350	0.112	> 39									
Cc1cc(-c2cnc(Nc3ccc(C#N)cc3)nc2Nc2c(C)cc(-c3ccncc3)cc2C)cnc1Cl	> 5560	0.043	> 242									
Cc1cc(-c2cnc(Nc3ccc(C#N)cc3)nc2Nc2c(C)cc(-c3ccncc3)cc2C)ccn1	1630	0.009	14.9	0.029	0.093	1.33	0.075	0.942	0.071	0.127	0.021	
N#Cc1ccc(Nc2ncc(-c3ccc(F)nc3)c(Nc3c(F)cc(-c4ccncc4)cc3F)n2)cc1	18500	0.009	167									
Cc1cc(-c2cnc(Nc3ccc(C#N)cc3)nc2Nc2c(F)cc(-c3ccncc3)cc2F)cnc1Cl	> 1560	0.153	> 238									
COc1ncc(-c2cnc(Nc3ccc(C#N)cc3)nc2Nc2c(C)cc(-c3ccncc3)cc2C)cc1N	11300	0.007	81.1	0.014	0.066	1.1	0.031	0.114	0.048		0.01	
N#Cc1ccc(Nc2ncc(-c3ccsc3)c(Nc3c(F)cc(-c4ccncc4)cc3F)n2)cc1	10100	0.007	72.1							0.073		
Cc1cc(-c2cnc(Nc3ccc(C#N)cc3)nc2Nc2c(F)cc(-c3ccncc3)cc2F)ccn1	8090	0.02	162									
N#Cc1ccc(Nc2ncc(-c3cccnc3)c(Nc3c(F)cc(-c4ccncc4)cc3F)n2)cc1	> 2250	0.019	> 41.9									
N#Cc1ccc(Nc2ncc(-c3ccnc(Cl)c3)c(Nc3c(F)cc(-c4ccncc4)cc3F)n2)cc1	14100	0.007	103							0.138		
N#Cc1ccc(Nc2ncc(-c3cncc(Cl)c3)c(Nc3c(F)cc(-c4ccncc4)cc3F)n2)cc1	9340	0.017	159									
Cc1cncc(-c2cnc(Nc3ccc(C#N)cc3)nc2Nc2c(C)cc(-c3ccncc3)cc2C)c1	656	0.018	11.5									
Cc1cncc(-c2cnc(Nc3ccc(C#N)cc3)nc2Nc2c(F)cc(-c3ccncc3)cc2F)c1	2540	0.041	104									
Cc1cc(-c2cnc(Nc3ccc(C#N)cc3)nc2Nc2c(F)cc(-c3ccncc3)cc2F)cc(C)n1	984	0.1	97.9									
N#Cc1ccc(Nc2ncc(-c3ccnc(F)c3)c(Nc3c(F)cc(-c4ccncc4)cc3F)n2)cc1	12300	0.01	121							0.127		
Cc1cc(-c2ccncc2)cc(C)c1Nc1nc(Nc2ccc(C#N)cc2)ncc1-c1ccsc1	> 45200	0.006	> 264	0.043	0.047	0.453	0.041	0.259	0.034	0.072	0.008	
N#Cc1ccc(Nc2ncc(-c3ccc(Cl)nc3)c(Nc3c(F)cc(-c4ccncc4)cc3F)n2)cc1	19100	0.01	196									
Cc1ccc(-c2cnc(Nc3ccc(C#N)cc3)nc2Nc2c(F)cc(-c3ccncc3)cc2F)cn1	7300	0.027	194									
Cc1cc(-c2cnc(Nc3ccc(C#N)cc3)nc2Nc2c(C)cc(-c3ccncc3)cc2C)cnc1F	> 7640	0.033	> 249									
Cc1cc(-c2cnc(Nc3ccc(C#N)cc3)nc2Nc2c(C)cc(-c3ccncc3)cc2C)cc(C)n1	563	0.064	36.1									
N#Cc1ccc(Nc2ncc(-c3ccco3)c(Nc3c(F)cc(-c4ccncc4)cc3F)n2)cc1	> 6300	0.007	> 42.9							0.077		

SMILES	selectivity ratio ([1]; MT4 cells)	EC50 [2] [µM]	CC50 at 120 h [3] [µM]	EC50 [4] [µM]	EC50 [5] [µM]	EC50 [6] [µM]	EC50 [7] [µM]	EC50 [8] [µM]	EC50 [9] [µM]	IC50 [10] [µM]	EC50 [11] [µM]	selectivity ratio ([1]; mt4)
Cc1cc(-c2cnc(Nc3ccc(C#N)cc3)nc2Nc2c(F)cc(-c3ccncc3)cc2F)cnc1F	> 9800	0.025	> 246									
Cc1cc(-c2ccncc2)cc(C)c1Nc1nc(Nc2ccc(C#N)cc2)ncc1-c1ccc(Cl)nc1	3990	0.001	3.98							0.175		
COc1ccc(-c2cnc(Nc3ccc(C#N)cc3)nc2Nc2c(F)cc(-c3ccncc3)cc2F)cn1	6430	0.026	169									
Cc1cc(-c2ccncc2)cc(C)c1Nc1nc(Nc2ccc(C#N)cc2)ncc1-c1cncc(F)c1	> 6000	0.043	> 257									
N#Cc1ccc(Nc2ncc(-c3ccc(N)nc3)c(Nc3c(F)cc(-c4ccncc4)cc3F)n2)cc1	5790	0.025	143									
Cc1cc(-c2ccncc2)cc(C)c1Nc1nc(Nc2ccc(C#N)cc2)ncc1-c1ccncc1	> 19100	0.014	> 266	0.041	0.182	1.98	0.139	1.17	0.092	0.059	0.023	
COc1ccc(-c2cnc(Nc3ccc(C#N)cc3)nc2Nc2c(C)cc(-c3ccncc3)cc2C)cn1	> 3270	0.077	> 250									
N#Cc1ccc(Nc2ncc(-c3cncc(N)c3)c(Nc3c(F)cc(-c4ccncc4)cc3F)n2)cc1	2380	0.07	167									
Cc1cc(-c2ccncc2)cc(C)c1Nc1nc(Nc2ccc(C#N)cc2)ncc1-c1ccco1	2060	0.004	7.97	0.007	0.015	0.142	0.024	0.102	0.007	0.084	0.003	
COc1ncc(-c2cnc(Nc3ccc(C#N)cc3)nc2Nc2c(F)cc(-c3ccncc3)cc2F)cc1F	> 4810	0.049	> 238									
COc1cc(-c2cnc(Nc3ccc(C#N)cc3)nc2Nc2c(F)cc(-c3ccncc3)cc2F)ccn1	> 12400	0.02	> 246									
COc1ncc(-c2cnc(Nc3ccc(C#N)cc3)nc2Nc2c(F)cc(-c3ccncc3)cc2F)cc1N	4930	0.044	215									
N#Cc1ccc(Nc2ncc(-c3cccs3)c(Nc3c(F)cc(-c4ccncc4)cc3F)n2)cc1	2170	0.011	23.4							0.105		
N#Cc1ccc(Nc2ncc(-c3ccncc3)c(Nc3c(F)cc(-c4ccncc4)cc3F)n2)cc1	> 4360	0.01	> 41.9									
Cc1cc(-c2ccncc2)cc(C)c1Nc1nc(Nc2ccc(C#N)cc2)ncc1-c1ccc(C(F)(F)F)nc1	> 822	0.045	> 3720									
CN(C)c1ccc(-c2cnc(Nc3ccc(C#N)cc3)nc2Nc2c(F)cc(-c3ccncc3)cc2F)cn1	714	0.074	52.9									
Cc1cc(-c2ccncc2)cc(C)c1Nc1nc(Nc2ccc(C#N)cc2)ncc1-c1cccs1	> 24100	0.011	> 264	0.012	0.029	0.136	0.039	0.148	0.018	0.075	0.005	
Cn1c(Cn2ccc(C(F)(F)F)c(Oc3cc(Cl)cc(C#N)c3)c2=O)n[nH]c1=O [DORAVIRINE]										0.033		
O=C1Nc2ccc(Cl)cc2[C@@](C#CC2CC2)(C(F)(F)F)O1 [EFAVIRENZ]		0.045	> 7.49			0.181	0.006		0.024		0.059	
Cc1ccnc2c1NC(=O)c1cccnc1N2C1CC1 [NEVIRAPINE]			> 15	0.142	> 10	> 10		> 10	1.79			
Cc1cn([C@H]2C[C@H](N=[N+]=[N-])[C@@H](CO)O2)c(=O)[nH]c1=O [ZIDOVUDINE]		0.026	> 248	0.03	0.033	0.028	0.037				0.025	> 9710

From ChEMBL document CHEMBL6120973 (J Med Chem, 2024)
